Results: paper PMC5964640, “Pharmacological effects of N-[2-[[2-[2-[(2,6-dichlorophenyl)amino]phenyl]acetyl]oxy]ethyl]hyaluronamide (diclofenac Etalhyaluronate, SI-613), a novel sodium hyaluronate derivative chemically linked with diclofenac” (BMC Musculoskeletal Disorders, 2018)
“And” between values parts separate entries of the source, which are not always exact repeats. Identical values can stand only once. Blank lines part the entries; values can stand above or below the compound they belong to.

What was measured:
PGE2 content in the SF = PGE2 content in the SF of rabbits with antigen-induced arthritis; assay type: in vivo, rabbit; conditions: for production of PGE2 in the SF, group comparison: 72 h after administration
Method: To prepare the anesthetic, saline (2 mL), midazolam (1 mL, 5 mg/mL, Astellas Pharma Inc., Tokyo, Japan), xylazine (2 mL, 0.02 g/mL, Bayer Medical Ltd., Tokyo, Japan), and butorphanol tartrate (1 mL, 5 mg/mL, Meiji Seika Kaisha, Ltd., Tokyo, Japan) were mixed. The anesthetic was administered intravenously to each animal at a volume of 1 mL/body. OVA (Sigma-Aldrich Co., St. Louis, MO) emulsion with Freund's complete adjuvant (FCA; CAPPEL Laboratories Inc., Cochranville, PA) was injected intradermally into the backs of 80 male rabbits at a dose of 5 mg/animal twice at an interval of 13 or 14 days. Twenty-three days after the first immunization, 1% OVA solution was injected in the joint cavities of the left hindlimb at a volume of 500 μL/joint to induce arthritis. […] Animals were sacrificed by exsanguination under 2% isoflurane anesthesia 3 and 72 h after administration, respectively. The SF was collected by washing the joint cavity twice with saline (Otsuka Pharmaceutical Factory, Inc.) containing 20 μg/mL of indomethacin ([…] K. K.) at 3 or 72 h after the administration of the test materials. The PGE2 content in the SF was determined as a mechanism biomarker for the anti-inflammatory effect using a High Sensitivity Prostaglandin E2 Enzyme Immunoassay Kit (Assay Designs Inc.).

[1] = Distribution of DF in knee tissues after a single administration, short-term study (LC-MS/MS); assay type: in vivo, rabbit; conditions: individual animals, free DF
Method: Two days after the induction of arthritis, 5 mg/joint SI-613, a mixture of 0.59 mg/joint DF-Na and 5 mg/joint HA (DF-Na + HA), or PBS was administered to the knee joint cavity at a volume of 500 μL/joint. DF-Na was orally administered at a dose of 2 mg/kg. The concentrations of free DF in the synovium and synovial lavage fluid were measured by high performance liquid chromatography coupled with tandem mass spectrometry (LC-MS/MS) at 3 and 72 h after a single IA administration and after a single oral administration of the test materials, respectively. Moreover, plasma concentrations of DF were determined to compare the systemic exposure of DF after the administration of SI-613 with that of the other compounds. The synovium was homogenized in 40-fold volume (40 mL for 1 g tissue) of 10 mM ammonium formate (pH 6.0)/methanol (3:2, v/v) on an ice bath. Then, free DF in the homogenate was extracted with tert-butyl methyl ether-1% acetic acid (6:1, v/v). Free DF in the synovial fluid or plasma was adsorbed to an Oasis HLB cartridge (30 mg/1 cm^3, Waters Corporation, Milford, MA) and eluted with methanol. The internal standard of deuterium-labeled diclofenac (diclofenac-d7) was added to each sample. The extract was loaded onto a CAPCELL PAK C18 MG HPLC column (Shiseido Co. Ltd., Tokyo, Japan, column size: 4.6 mm × 35 mm, particle size: 5 μm) at 40 °C, and eluted with 10 mM ammonium formate (pH 6.0)/methanol (2:3, v/v) at a flow rate of 0.5 mL/minute. For mass detection, we used a QTRAP® 5500 System (AB SCIEX, Framingham, MA) equipped with an electrospray ionization (ESI) source in positive ions in multiple reaction monitoring (MRM) mode. Linear calibration (r > 0.999) was attained at 5–1000 ng/g for the synovium and at 1–200 ng/mL for the synovial fluid and plasma.

[2] = Plasma DF concentrations of rabbits with antigen-induced arthritis; assay type: in vivo, rabbit
Method: Arthritis was induced in the 12 rabbits as described above. Two days after the induction of arthritis, 5 mg/joint SI-613, a mixture of 0.59 mg/joint DF-Na and 5 mg/joint HA (DF-Na + HA), or PBS was administered to the knee joint cavity at a volume of 500 μL/joint. DF-Na was orally administered at a dose of 2 mg/kg. The concentrations of free DF in the synovium and synovial lavage fluid were measured by high performance liquid chromatography coupled with tandem mass spectrometry (LC-MS/MS) at 3 and 72 h after a single IA administration and after a single oral administration of the test materials, respectively. Moreover, plasma concentrations of DF were determined to compare the systemic exposure of DF after the administration of SI-613 with that of the other compounds. The synovium was homogenized in 40-fold volume (40 mL for 1 g tissue) of 10 mM ammonium formate (pH 6.0)/methanol (3:2, v/v) on an ice bath. Then, free DF in the homogenate was extracted with tert-butyl methyl ether-1% acetic acid (6:1, v/v). Free DF in the synovial fluid or plasma was adsorbed to an Oasis HLB cartridge (30 mg/1 cm^3, Waters Corporation, Milford, MA) and eluted with methanol. The internal standard of deuterium-labeled diclofenac (diclofenac-d7) was added to each sample. The extract was loaded onto a CAPCELL PAK C18 MG HPLC column (Shiseido Co. Ltd., Tokyo, Japan, column size: 4.6 mm × 35 mm, particle size: 5 μm) at 40 °C, and eluted with 10 mM ammonium formate (pH 6.0)/methanol (2:3, v/v) at a flow rate of 0.5 mL/minute. For mass detection, we used a QTRAP® 5500 System (AB SCIEX, Framingham, MA) equipped with an electrospray ionization (ESI) source in positive ions in multiple reaction monitoring (MRM) mode. Linear calibration (r > 0.999) was attained at 5–1000 ng/g for the synovium and at 1–200 ng/mL for the synovial fluid and plasma. The extraction efficiencies of diclofenac were 84.2–92.9% for the synovium, 95.2–100.3% for the synovial fluid, and 94.2–96.5% for the plasma.
Time for calculation of area under the DF plasma concentration-time curve (AUC0-t), t (day), was the latest time point at which DF was quantifiable. The half-life (T1/2) was determined by semi-log plotting the data of at least three time points after Tmax.

[3] = system: silver nitrate-induced arthritic rats; assay: Rat model of silver nitrate-induced arthritic pain (pain score, weight-bearing rate); assay type: in vivo
Excerpt: The silver nitrate-induced arthritic pain model is known as a subacute arthritis model, in which the inflammatory response and pain last for at least 3 days following injury. This model involves the activation of prostaglandin pathways and has been used for evaluating the analgesic effects of various NSAIDs or kappa-opioid receptor agonist. Overall, 136 male Sprague-Dawley (SD) rats were obtained from Charles River Laboratories Japan Inc. General anesthesia was maintained by the inhalation of isoflurane (Forane; Dainippon Sumitomo Pharma Co., Ltd., Osaka, Japan). Silver nitrate solution (1%, Wako Pure Chemical Industries, Ltd., Osaka, Japan) at a volume of 50 μL/joint was injected in the knee joint cavity of the left hindlimbs of rats. Animals with no abnormalities were allocated to four groups in each study based on the weight-bearing rate of the inflamed joints and pain score at the time of allocation, by using stratified continuous randomization. Test substances were administered on the day following the arthritis induction. In the first study, SI-613 (contents of DF; 11.8% (w/w), manufactured by Seikagaku Corporation, Tokyo, Japan) at doses of 0.05, 0.15, and 0.5 mg/50 μL/joint (5.9, 17.7, and 59 μg/joint in DF equivalent) or phosphate-buffered saline (PBS) was once injected into the joint cavities of the left hindlimbs for the dose-response assessments.
In the second study, SI-613 (0.5 mg/joint, 59 μg/joint in DF equivalent), HA (0.5 mg/joint, Seikagaku Corporation), a mixture of DF-Na (59 μg/joint, Wako Pure Chemical Industries, Ltd.) and HA (0.5 mg/joint) (DF-Na + HA), or PBS was administered in the same manner for the proof of concept. The doses of DF-Na and HA were set at those of respective components in SI-613 formulation. The DF-Na solution (1 mg/mL) was prepared using the Water for Injection (Otsuka Pharmaceutical Factory, Inc., Tokyo, Japan) and administered orally at a dose of 2 mg/kg (approximately 0.3 mg/body) once daily for 3 days. The oral DF-Na dose, 2 mg/kg, was set in accordance with the dose for adult humans with a body weight of 50 kg, on the assumption that the maximum daily dose in clinical practice administered to patients with OA or rheumatoid arthritis would be 100 mg. It has been reported that DF-Na exerted anti-inflammatory effects in rats when administered at this dose.
Pain was assessed under blinded conditions by scoring pain-related behaviors based on the following criteria and measuring the weight-bearing rates of hindlimbs with a load-measuring device (Tokken Inc., Chiba, Japan) at a same time each day for 3 days after the injection of the test materials.
The criteria for assigning pain scores were as follows: 0; normal, 1; mild claudication with lifting the foot, 2; severe claudication with completely closing the toe, 3; walking on three legs. The weight-bearing rate was calculated using the following formula:
Weight-bearing rate (%) = Mean weight-bearing load on inflamed leg (g) / Body weight (g) × 100.

[4] = system: PGE2 content in the synovial fluid; assay: PGE2 content in the synovial fluid of silver nitrate-induced arthritic rats; assay type: in vivo, rat
Method: In addition, the prostaglandin E2 (PGE2) content, which plays a critical role in inducing inflammation and pain associated with arthritis, was determined in the synovial fluid (SF). Briefly, SI-613 (0.5 mg/joint) or PBS was administered into the joint cavity of the left hindlimb. After assessing the severity of pain, animals were sacrificed by exsanguination under 2% isoflurane anesthesia 1, 2 and 3 days after administration, respectively. The SF was collected by washing the joint cavity with saline (Otsuka Pharmaceutical Factory, Inc.) containing indomethacin (Indacin, MSD K. K., Tokyo, Japan), which was effective to prevent joint puncturing-induced production of PGE2 (unpublished result). The PGE2 content in the SF was measured with a High Sensitivity PGE2 Correlate-EIA kit (Assay Designs Inc., Ann Arbor, MI).

[5] = system: antigen-induced arthritic rabbits; assay: Knee joint swelling of antigen-induced arthritic rabbits (long-lasting anti-inflammatory effect); assay type: in vivo, rabbit; conditions: single IA 5 mg/joint
Method: The duration and efficacy of the anti-inflammatory effect of SI-613 was studied in OVA-induced arthritis rabbits. Two days after the arthritis induction, the knee joint diameter in all 60 rabbits was measured with a digital thickness gauge (Teclock Corp., Nagano, Japan). The joint swelling was expressed as the difference in millimeters between the inflamed (left) and non-inflamed (right) knee joint diameters. The same researcher evaluated the knee joint swelling on all groups on all days. Fifteen animals (knee joint swelling was not more than 7.30 mm) and 5 animals (knee joint swelling was not less than 10.40 mm) were excluded. Forty animals were divided into two groups of 20 animals each by the stratified random sampling method based on the knee joint swelling and body weight of the day, and were administered with 5 mg/joint SI-613 or PBS at a volume of 500 μL/joint into the joint cavities. The knee joint swelling was evaluated the day before (day 0), and on days 1, 3, 7, 14, 21, 28, 35, and 42 after a single injection of the test materials. The knee joint swelling was expressed as the difference in the width of the right and left knee joint.

[6] = DF in knee tissues after a single IA administration of SI-613, long-term study (LC-MS/MS); assay type: in vivo, rabbit; conditions: single IA 5 mg/joint
Method: Arthritis was induced in the 24 rabbits as described above. Two days after the induction of arthritis in the rabbits, 5 mg/joint SI-613 or PBS was administered at a volume of 500 μL/joint into the knee joint cavity. Concentrations of DF in the synovium and synovial lavage fluid were measured by LC-MS/MS on days 1, 3, 7, 14, 21, 28, 35, and 42 after a single IA administration.

[7] = sampling point 72 h, oral 2 mg/kg or single IA
[8] = second study, single IA 0.5 mg/joint, compared with PBS, HA, DF-Na + HA or repeated oral DF-Na
[9] = sampling point 72 h, oral 2 mg/kg or single IA, 2 mg/kg

- AUC(0-inf) ([2]; rabbit, plasma, po, 2 mg/kg, mean ± SD, read-out: AUC0-∞ of DF in plasma): 4.13 µg·h/mL
- half-life ([2]; rabbit, plasma, po, 2 mg/kg, mean ± SD, read-out: t1/2 of DF in plasma (converted)): 12.8 h
- Tmax ([2]; rabbit, plasma, po, 2 mg/kg, same groups, mean ± SD): 2.4 ± 3.2 h
- AUC(0-t) ([2]; rabbit, plasma, po, 2 mg/kg, t = latest time point at which DF was quantifiable, mean ± SD, read-out: AUC0-t of DF in plasma): 4.69 ± 1.91 µg·h/mL
- Cmax ([2]; rabbit, plasma, DF-Na oral 2 mg/kg, mixture DF-Na 0.59 mg + HA 5 mg/joint IA, SI-613 5 mg/joint IA, mean ± SD): 0.621 ± 0.372 µg/mL
Compound: O=C(O)Cc1ccccc1Nc1c(Cl)cccc1Cl [DF-Na, diclofenac sodium]
- mean PGE2 content in the SF (PGE2 content in the SF; 3 h after administration, DF-Na oral 2 mg/kg): 3767 pg/joint
- production of PGE2 in the SF compared with the control group (PGE2 content in the SF; 3 h after administration, oral 2 mg/kg): significantly suppressed
- production of PGE2 in the SF, group comparison (PGE2 content in the SF): No significant differences
- Concentration of DF Synovial lavage fluid ([1]; sampling point 3 h): 124.6 ng/mL fluid and 58.23 ng/mL fluid and 45.66 ng/mL fluid
- Concentration of DF Synovium ([1]; sampling point 3 h): 155.8 ng/g tissue and 52.88 ng/g tissue and 75.83 ng/g tissue
- Concentration of DF Synovial lavage fluid [1, 7]: BLQ2 (< 1 ng of DF per mL of synovial lavage fluid)
- Concentration of DF Synovium [1, 7]: BLQ1 (below limit of quantification, < 5 ng/g)

Compound: N-[2-[[2-[2-[(2,6-dichlorophenyl)amino]phenyl]acetyl]oxy]ethyl]hyaluronamide [SI-613]
- analgesic effect (pain score) ([3]; PGE2 study, IA 0.5 mg/joint, days 1, 2 and 3): confirmed each day
- pain behavioral score ([3]; first study, single IA 0.05, 0.15 and 0.5 mg/joint, vs control (PBS), mean of 3 days): improved the pain behavioral scores significantly
- weight-bearing rate ([3]; first study, single IA 0.15 and 0.5 mg/joint, vs control, mean of 3 days): significantly increased the weight-bearing rates
- pain behavioral score [3, 8]: significantly improved the pain behavioral score
- weight-bearing rate [3, 8]: increased the weight-bearing rate
- PGE2 content in the SF vs control ([4]; IA 0.5 mg/joint, days 1, 2 and 3): lower PGE2 content than the control group
- PGE2-inhibitory effect, statistical significance vs control ([4]; rat model, 72 h after administration): no statistically significant difference
- production of PGE2 in the SF, group comparison (PGE2 content in the SF): significantly suppressed
- knee joint swelling compared with the control ([5]; day 1 until day 28): significantly decreased
- knee joint swelling compared with the control ([5]; day 35 and day 42): no significant difference
- Concentration of DF Synovial lavage fluid [1, 9]: 60.64 ng/mL fluid and 38.82 ng/mL fluid and 1540 ng/mL fluid
- Concentration of DF Synovium [1, 9]: 15.23 ng/g tissue and 45.47 ng/g tissue and 351.1 ng/g tissue
- plasma AUC0-t of DF, times smaller than DF-Na + HA group (IA) ([2]; SI-613 IA vs DF-Na + HA IA): 16 times
- plasma Cmax of DF, times lower than DF-Na + HA group (IA) ([2]; SI-613 IA vs DF-Na + HA IA): 94 times
- plasma AUC0-t of DF, times smaller than DF-Na group (oral) ([2]; SI-613 IA vs DF-Na oral): 187 times
- plasma Cmax of DF, times lower than DF-Na group (oral) ([2]; SI-613 IA vs DF-Na oral): 462 times
- mean amount of DF in the joint cavity lavage fluid ([6]; day 21): 5.940 ng/joint
- DF in the joint cavity lavage fluid ([6]; day 28): < 1 ng of DF per mL of synovial lavage fluid
- mean DF concentration in the synovium ([6]; day 28): 9.754 ng/g
